Reference: ChEMBL document CHEMBL1149573, “Synthesis and reactivity of azobenzene-based bispropargyl sulfones: interesting comparison between cyclic and acyclic systems” (Bioorg Med Chem Lett, 2007)

Tested on: Escherichia coli
Experiment: Induction of pBR322 DNA cleavage after 2.5 hrs relative to (E)-1,2-bis(2-(4-(phenylsulfonyl)but-2-ynyloxy)phenyl)diazene

An Activity of 15% was found for O=S(=O)(CC#CCOc1ccc2ccccc2c1)c1ccccc1 in this work.
